Test results reported in ChEMBL document CHEMBL3751747, “Synthesis and positive inotropic activity evaluation of liguzinediol metabolites” (Bioorg Med Chem Lett, 2016).
“And” between values parts separate entries of the source, which are not always exact repeats. Equal values may be shown once.

Columns and labels:
Heart [1] = experiment: Positive inotropic activity in Sprague-Dawley rat heart assessed as peak rise rate of left ventricular pressure at 10 umol/L (reference value: 1117.66 +/- 665.76 to 1242.03 +/- 495.72 mmHg/s); format: functional, Heart left ventricle
Heart [2] = experiment: Positive inotropic activity in Sprague-Dawley rat heart assessed as peak rise rate of left ventricular pressure at 1 umol/L (reference value: 1117.66 +/- 665.76 to 1242.03 +/- 495.72 mmHg/s); format: functional, Heart left ventricle
Heart [3] = experiment: Positive inotropic activity in Sprague-Dawley rat heart assessed as left ventricular diastolic pressure at 100 umol/L (reference value: -0.04 +/- 0.33 to -0.67 +/- 0.69 mmHg); format: functional, Heart left ventricle
Heart [4] = experiment: Positive inotropic activity in Sprague-Dawley rat heart assessed as left ventricular diastolic pressure at 10 umol/L (reference value: -0.04 +/- 0.33 to -0.67 +/- 0.69 mmHg); format: functional, Heart left ventricle
Heart [5] = experiment: Positive inotropic activity in Sprague-Dawley rat heart assessed as left ventricular diastolic pressure at 1 umol/L (reference value: -0.04 +/- 0.33 to -0.67 +/- 0.69 mmHg); format: functional, Heart left ventricle
Heart [6] = experiment: Positive inotropic activity in Sprague-Dawley rat heart assessed as left ventricular systolic pressure at 10 umol/L (reference value: 20.7 +/- 7.61 to 25.86 +/- 9.41 mmHg); format: functional, Heart left ventricle
Heart [7] = experiment: Positive inotropic activity in Sprague-Dawley rat heart assessed as left ventricular systolic pressure at 100 umol/L (reference value: 20.7 +/- 7.61 to 25.86 +/- 9.41 mmHg); format: functional, Heart left ventricle
Heart [8] = experiment: Positive inotropic activity in Sprague-Dawley rat heart assessed as left ventricular systolic pressure at 1 umol/L (reference value: 20.7 +/- 7.61 to 25.86 +/- 9.41 mmHg); format: functional, Heart left ventricle
[9] = Retention time of the compound by HPLC- MS/MS analysis; format: physicochemical
Heart [10] = experiment: Positive inotropic activity in Sprague-Dawley rat heart assessed as peak rise of left ventricular pressure at 100 umol/L (reference value: 1117.66 +/- 665.76 to 1242.03 +/- 495.72 mmHg/s); format: functional, Heart left ventricle
Heart [11] = experiment: Positive inotropic activity in Sprague-Dawley rat heart assessed as peak decrease rate of left ventricular pressure at 1 umol/L (reference value: - 756.58 +/- 265.23 to - 831 +/- 313.09 mmHg/s); format: functional, Heart left ventricle
Heart [12] = experiment: Positive inotropic activity in Sprague-Dawley rat heart assessed as peak decrease rate of left ventricular pressure at 10 umol/L (reference value: - 756.58 +/- 265.23 to - 831 +/- 313.09 mmHg/s); format: functional, Heart left ventricle
Heart [13] = experiment: Positive inotropic activity in Sprague-Dawley rat heart assessed as peak decrease rate of left ventricular pressure at 100 umol/L (reference value: - 756.58 +/- 265.23 to - 831 +/- 313.09 mmHg/s); format: functional, Heart left ventricle
Heart [14] = experiment: Positive inotropic activity in Sprague-Dawley rat heart assessed as heart rate at 1 umol/L (reference value: 218.67 +/- 20.62 to 260 +/- 21.81 bpm); format: functional
Heart [15] = experiment: Positive inotropic activity in Sprague-Dawley rat heart assessed as heart rate at 10 umol/L (reference value: 218.67 +/- 20.62 to 260 +/- 21.81 bpm); format: functional
Heart [16] = experiment: Positive inotropic activity in Sprague-Dawley rat heart assessed as heart rate at 100 umol/L (reference value: 218.67 +/- 20.62 to 260 +/- 21.81 bpm); format: functional
Heart [17] = experiment: Toxicity in Sprague-Dawley rat heart assessed as arrhythmias; settings: in vivo
Heart [18] = experiment: Positive inotropic activity in Sprague-Dawley rat heart assessed as increase in peak decrease rate of left ventricular pressure at 1 uM relative to control; format: functional, Heart left ventricle; parameters: scale not given: the % may be the effect or the level left
Heart [19] = experiment: Positive inotropic activity in Sprague-Dawley rat heart assessed as increase in peak rise of left ventricular pressure at 100 uM relative to control; format: functional, Heart left ventricle
Heart [20] = experiment: Positive inotropic activity in Sprague-Dawley rat heart assessed as increase in peak rise of left ventricular pressure at 10 uM relative to control; format: functional, Heart left ventricle
Heart [21] = experiment: Positive inotropic activity in Sprague-Dawley rat heart assessed as increase in peak rise of left ventricular pressure at 1 uM relative to control; format: functional, Heart left ventricle
Heart [22] = experiment: Positive inotropic activity in Sprague-Dawley rat heart assessed as increase in left ventricular systolic pressure at 100 uM relative to control; format: functional, Heart left ventricle
Heart [23] = experiment: Positive inotropic activity in Sprague-Dawley rat heart assessed as increase in left ventricular systolic pressure at 10 uM relative to control; format: functional, Heart left ventricle
Heart [24] = experiment: Positive inotropic activity in Sprague-Dawley rat heart assessed as increase in left ventricular systolic pressure at 1 uM relative to control; format: functional, Heart left ventricle
Heart [25] = experiment: Positive inotropic activity in Sprague-Dawley rat heart assessed as increase in peak decrease rate of left ventricular pressure at 10 uM relative to control; format: functional, Heart left ventricle; parameters: scale not given: the % may be the effect or the level left
Heart [26] = experiment: Positive inotropic activity in Sprague-Dawley rat heart assessed as increase in peak decrease rate of left ventricular pressure at 100 uM relative to control; format: functional, Heart left ventricle; parameters: scale not given: the % may be the effect or the level left
Heart [27] = experiment: Positive inotropic activity in Sprague-Dawley rat heart assessed as left ventricular systolic pressure; format: functional, tissue-based; settings: Heart left ventricle
Heart [28] = experiment: Positive inotropic activity in Sprague-Dawley rat heart assessed as +dP/dtmax; format: functional, tissue-based
Heart [29] = experiment: Positive inotropic activity in Sprague-Dawley rat heart assessed as -dP/dtmax; format: functional, tissue-based

| SMILES | Retention_time [9] | Activity (Heart [1]) | Activity (Heart [2]) | Activity (Heart [3]) | Activity (Heart [4]) | Activity (Heart [5]) | Activity (Heart [6]) | Activity (Heart [7]) | Activity (Heart [8]) | Activity (Heart [10]) | Activity (Heart [11]) | Activity (Heart [12]) | Activity (Heart [13]) | Activity (Heart [14]) | Activity (Heart [15]) | Activity (Heart [16]) | Activity (Heart [17]) | other results |
| --- | --- | --- | --- | --- | --- | --- | --- | --- | --- | --- | --- | --- | --- | --- | --- | --- | --- | --- |
| Cc1nc(C(=O)O)c(C)nc1CO | 3.675 min and 3.637 min | 1286.48 mmHg/s | 1267.96 mmHg/s | -0.38 mmHg | -0.19 mmHg | -0.24 mmHg | 27.85 mmHg | 28.51 mmHg | 26.98 mmHg | 1299.82 mmHg/s | -865.84 mmHg/s | -892.92 mmHg/s | -904.56 mmHg/s | 259.5 bpm | 252.83 bpm | 246.61 bpm | Non-toxic | – |
| Cc1nc(CO)c(C)nc1CO | – | – | – | -0.34 mmHg | -0.19 mmHg | 0 mmHg | – | – | – | – | – | – | – | 239.06 bpm | 245.44 bpm | 238.5 bpm | Non-toxic | Activity (Heart [18]): 10.38%; Activity (Heart [19]): 23.9%; Activity (Heart [20]): 14.75%; Activity (Heart [21]): 4.23%; Activity (Heart [22]): 59.4%; Activity (Heart [23]): 32.96%; Activity (Heart [24]): 17.65%; Activity (Heart [25]): 24.95%; Activity (Heart [26]): 47.83%; Activity (Heart [27]): Dose-dependent effect; Activity (Heart [28]): Dose-dependent effect; Activity (Heart [29]): Dose-dependent effect |
| Cc1nc(CO[C@@H]2O[C@H](C(=O)O)[C@@H](O)[C@H](O)[C@H]2O)c(C)nc1CO (stereo in doubt) | 6.71 min | – | – | – | – | – | – | – | – | – | – | – | – | – | – | – | – | – |
| Cc1nc(CSCC(N)C(=O)O)c(C)nc1CO (stereo in doubt) | 2.988 min | – | – | – | – | – | – | – | – | – | – | – | – | – | – | – | – | – |
| Cc1nc(CO[C@@H]2O[C@H](C(=O)O)[C@@H](O)[C@H](O)[C@H]2O)c(C)nc1CO (stereo in doubt; 2) | 6.687 min | 1123.44 mmHg/s | 1127.74 mmHg/s | -0.97 mmHg | -0.76 mmHg | -0.73 mmHg | 22.66 mmHg | 23.76 mmHg | 22.35 mmHg | 1127.22 mmHg/s | -790.99 mmHg/s | -804.27 mmHg/s | -733.61 mmHg/s | 234.28 bpm | 221.22 bpm | 220.67 bpm | Non-toxic | – |

Continued, in another order:

| Retention_time [9] | SMILES | Activity (Heart [1]) | Activity (Heart [2]) | Activity (Heart [3]) | Activity (Heart [4]) | Activity (Heart [5]) | Activity (Heart [6]) | Activity (Heart [7]) | Activity (Heart [8]) | Activity (Heart [10]) | Activity (Heart [11]) | Activity (Heart [12]) | Activity (Heart [13]) | Activity (Heart [14]) | Activity (Heart [15]) | Activity (Heart [16]) | Activity (Heart [17]) | other results |
| --- | --- | --- | --- | --- | --- | --- | --- | --- | --- | --- | --- | --- | --- | --- | --- | --- | --- | --- |
| 5.709 min | CC(=O)NC(CSCc1nc(C)c(CO)nc1C)C(=O)O (stereo in doubt) | – | – | – | – | – | – | – | – | – | – | – | – | – | – | – | – | – |
| 3 min | Cc1nc(CSCC(N)C(=O)O)c(C)nc1CO (stereo in doubt; 3) | 1296.62 mmHg/s | 1303.47 mmHg/s | -0.24 mmHg | -0.09 mmHg | -0.11 mmHg | 25.68 mmHg | 27.42 mmHg | 25.02 mmHg | 1333.56 mmHg/s | -782.91 mmHg/s | -784.9 mmHg/s | -822.39 mmHg/s | 231.39 bpm | 227.72 bpm | 230.67 bpm | Non-toxic | – |
| 5.705 min | CC(=O)NC(CSCc1nc(C)c(CO)nc1C)C(=O)O (stereo in doubt; 4) | 1191.76 mmHg/s | 1186.33 mmHg/s | -0.59 mmHg | -0.7 mmHg | -0.15 mmHg | 21.69 mmHg | 22.4 mmHg | 21.22 mmHg | 1199.81 mmHg/s | -799.02 mmHg/s | -823.04 mmHg/s | -872.56 mmHg/s | 228.5 bpm | 231.5 bpm | 232.39 bpm | Non-toxic | – |
